From patent publication US8193192B2, “Heterocyclic FXR binding compounds” (Phenex Pharmaceuticals AG, priority 2006, dated 2012)
Converted amounts (≈) assume the structure as drawn.

What was measured:
[1] = Aqueous solubility assay, Protocol B, shake-flask method; format: physicochemical; conditions: 10 mM PBS buffer with 1% MeOH, kinetic from dmso stock, 10 mM PBS buffer pH 7.4, 1% MeOH, room temperature, read-out: Aqueous solubility pH 7.4 (μM) (±standard deviation), shake-flask method
Protocol: Aqueous solubility of compounds was determined by nephelometry or by shake-flask method as follows:
Protocol B, Shake-Flask Method:
Sample preparation: Sample and standard solution preparation is performed by mixing equal volumes of acetonitrile containing the internal standard (1 μM final concentration) with sample and calibration standard solutions (100 μl). After vigorously shaking (10 seconds) the samples are centrifuged (6000 g) for 5 minutes at 20° C. Aliquots of the particle-free supernatants are transferred to 200 μl sample vials and subsequently subjected to LC-MS/MS analysis. Assay procedure: Test concentration was 100 μM in 10 mM PBS buffer pH 7.4 with a final MeOH concentration of 1%. The volume of the incubation solution was 500 μl. Depending on each compound's solubility in MeOH, the stock concentration and the incubation concentration was adapted. The test solutions in quadruplicates were shaken at 300 rpm over a 20 hours period at room temperature, followed by centrifugation at 20000 g for 30 minutes to separate the solid phase. 100 μl of particle free sample are added to 100 μl acetonitrile containing the internal standard. The aqueous solubility of the compounds was determined by measuring the concentration of the PBS buffer supernatant by HPLC-MS/MS. Aqueous solubilities of examples and reference compounds are listed below in Table 3.

[2] = Microsomal stability assay; format: in vitro ADME; conditions: pH 7.4; mouse liver microsomes, 37° C.
Protocol: Microsomal Stability Assay
In vitro assays were performed to evaluate the metabolic stability of test items in liver microsomes originating from mouse. Preparation of working standards of test items: Working solutions were prepared for each calibration level by appropriate dilution of the corresponding stock solution, depending on each compound's solubility in acetonitrile or acetonitrile/water. Calibration standards were prepared by spiking 196 μl standard matrix with 4 μl of the corresponding working solution. The standard matrix consists of 0.15 mg/ml of microsomal protein in phosphate buffer (100 mM pH 7.4), the final standard solutions contain 2% acetonitrile. The samples and standard solutions were extracted with ethyl acetate, isolation of the compounds was performed by addition of 600 μl ethyl acetate containing the internal standard (0.1 μM) to 200 μl sample and calibration standard. After vigorously shaking (10 minutes) and centrifugation (5000 g) the aqueous phase was separated by freezing in an acetone/dry ice bath and the organic phase is evaporated to dryness using a vacuum centrifuge. Samples were reconstituted in 200 μl acetonitrile/water mix (1:1 v/v) and subsequently subjected to LC-MS/MS. The incubation solution (180 μl) consisted of 90 μl of a microsomal suspension of 0.33 mg/ml of protein in phosphate buffer 100 mM pH 7.4 and 90 μl NADP-regenerating system. The reaction was initiated by the addition of 20 μl of test compound (in 20% acetonitrile) to the preincubated microsomes/buffer mix at 37° C. 200 μl samples were removed from the incubation after 0, 5, 10, and 30 minutes and processed for ethyl acetate extraction as described above. Negative controls using boiled microsomes (boiling water bath, 25 minutes) without regenerating system were run in parallel. The amount of compound in the samples is expressed as percentage of remaining compound compared to time point zero (=100%). These percentages were plotted against the corresponding time points. Intrinsic clearance (CLint) and half-life (t1/2) estimates were determined using the rate of parent disappearance and following formula (1) and (2). (1) CLint=(−k)×V×fu. (2) t1/2=ln 2/−k. Where CLint=intrinsic clearance [μl/min/mg protein], t1/2=half life [min], k=slope from the linear regression of log [test compound] versus time plot [1/min]. V=6666.7; fu=unbound fraction in the blood. Applying this protocol gave microsomal stabilities for examples and reference compounds as listed below in Table 6: […]

[3] = Determination of pharmacokinetic parameters in mice (oral cassette dosing); format: in vivo; conditions: C57BL/6 mice, po 5 mg/kg; for Vd: elimination phase; for CL: total body clearance; for Cmax / Tmax / AUC(0-inf) / concentration at 10 min / concentration at 30 min / concentration at 60 min / concentration at 120 min / concentration at 240 min / concentration at 480 min: male, mouse, plasma; for AUC(0-inf): extrapolated to infinity; for concentration at 10 min / concentration at 30 min / concentration at 60 min / concentration at 120 min / concentration at 240 min / concentration at 480 min: cassette, read-out: mean plasma conc.
Protocol: FIG. 1: Graphical depiction of pharmacokinetic data of compound A compared to example 3. Compound plasma concentrations (logarithmic scale) are plottet against sampling timepoints. Conditions: C57BL/6 mice, oral cassette dosing, 5 mg/Kg in 10% HPBCD/20 mM phosphate buffer.
Determination of Pharmacokinetic Parameters in Mice
Data on the rate and extent of absorption of the test compounds were generated. Compounds were applied perorally at 5 mg/kg each to male 8 weeks old C57BL/6 mice and plasma concentrations of the test items were determined by LC-MS/MS. A solution of […] of each test item was produced by diluting them in the vehicle, 10% HPBCD (hydroxypropyl-beta-cyclodextrin) in 20 mM phosphate buffer pH 7.0 (v/w). These solutions were stirred overnight at room temperature and heated to 60° C. for 10 minutes, resulting in a full solubilization. Then, an identical volume of each solution were mixed together to constitute the cassette. The application was performed by administrating the solution perorally to the mice, with an application volume of 10 ml/kg. […] Blood samples were obtained by sacrificing three animals for each time point (10, 30, 60, 120, 240, and 480 min) followed by cardiac puncture. Blood samples were treated with Li-heparin during collection procedure and stored on ice until centrifugation at 645 g (5 min, 4° C.). Plasma was harvested and kept at −20° C. until being assayed. To 50 μl of mouse plasma sample 6 μl acetonitrile containing an internal standard was added. Samples were vigorously shaken and centrifuged for 10 minutes at 6000 g and 20° C. An aliquot of the particle-free supernatant was transferred to 200 μl sampler vials and subsequently subjected to LC MS/MS for quantification.
Concentrations were plotted against sampling time for illustrating higher plasma levels of example 3 compared to plasma levels of compound A. The results are illustrated in FIG. 1.
PK calculation: The pharmacokinetic analysis of raw data was performed by applying a non-compartment model using the PK Solutions 2.0 software (Summit Research Services, Montrose, USA). All given parameters are model independent and were obtained by trapezoid area calculation and have the following meaning:
Cmax obs: maximal measured concentration;
tmax obs: time to reach the maximum measured concentration;
AUC0-∞: area under the concentration-time curve extrapolated to infinity;
Vd: volume of distribution during elimination phase;
CL: total body clearance.

SMILES | solubility at 20 h [1] | half-life [2] | microsomal CLint [2] | Vd [3] | CL [3] | Cmax [3] | Tmax [3] | AUC(0-inf) [3] | concentration at 10 min [3] | concentration at 30 min [3] | concentration at 60 min [3] | concentration at 120 min [3] | concentration at 240 min [3] | concentration at 480 min [3]
Cc1cc(OCc2c(-c3c(Cl)cccc3Cl)noc2C(C)C)cnc1Oc1ccc(C(=O)O)cc1 [Example 3, 4-(5-((3-(2,6-Dichlorophenyl)-5-isopropylisoxazol-4-yl)methoxy)-3-methylpyridin-2-yloxy)benzoic acid] | 188 µM (≈ 96.5 µg/mL) | 30 min | 153 µL/min/mg | 9.271 L/kg | 59 mL/min/kg | 904 ng/mL | 10 min | 1410 ng·h/mL | 904 ng/mL | 867 ng/mL | 291 ng/mL | 214 ng/mL | 63 ng/mL | 20 ng/mL
CC(C)c1onc(-c2c(Cl)cccc2Cl)c1COc1ccc(Oc2ccc(C(=O)O)cc2)cc1 [Compound A, reference compound] | 72.4 µM (≈ 36.1 µg/mL) | 22 min | 207 µL/min/mg | 110.078 L/kg | 343 mL/min/kg | 120 ng/mL | 10 min | 242 ng·h/mL | 120 ng/mL | 102 ng/mL | 43 ng/mL | 24 ng/mL | 15 ng/mL | 8 ng/mL
